Values joined by “and” are separate entries in the source; they are usually repeats but may differ in a detail not shown here. Identical values can stand only once. Like-named read-outs stand apart in the source and are kept apart here.
Columns and labels:
[1] = system: HT-29 human colorectal carcinoma cell line; test: MTT colometric assay; type: cell-based; details: for GI50: Homo sapiens
Procedure: Two different methods were used, the MTT colometric assay and the clonogenic assay. a)MTT colometric assay: HT-29 cells were plated at 2.5×10^3 cells/well in a 96-well tissue culture plate and allowed to attach overnight. […] After the incubation period with the drug, cells were washed and fresh drug-free medium added. On day 3, cellular proliferation was evaluated by the tetrazolium dye assay.

[2] = system: HT-29 human colorectal carcinoma cell line; test: Clonogenic assay; type: cell-based; details: HT-29 clonal growth; for IC50: Homo sapiens
Procedure: Two different methods were used, the MTT colometric assay and the clonogenic assay. b)Clonogenic assay: HT-29 cells were plated on 6-well flat-bottomed plates (200-400 cells) and allowed to attach overnight. […] After the incubation period with the drug, cells were washed and fresh drug-free medium added. On day 10, cells were exposed to Crystal violet stain.

[3] = system: HT-29 human colorectal cancer cells grown as xenografts in nude mice; test: Antitumor efficacy studies in human xenografts; type: in vivo; details: for day from which tumor regressions were observed: 6-day infusion; for inhibition of tumor growth: 53-63 mg/kg
Procedure: Antitumor efficacy studies: In vivo efficacy studies were conducted using the HT-29 human colorectal cancer cells grown as xenografts in nude mice. Female athymic CD-1(nu/nu) mice were injected s.c. with 2×10^6 human colon HT-29 tumor cells. Tumor bearing animals were randomised (10 to 15 per group) and treatment started when tumor volumes reached 80 to 120 mm^3 (days 6 to 9; depending on the study). Tumor measurements, taken by callipers twice weekly, were converted to tumor volumes (in mm^3) using the standard formula, [width (mm)]^2×length (mm)×0.52. […] The pumps were implanted s.c. under sterile conditions at the site opposite to the tumor. These pumps (internal volume, 200 μl) continuously deliver test agent at a rate of 1 μl/h for 200 h (8.3 days total). Pumps were removed after 1, 3, 5 or 6 days, thus insuring continuous delivery of test agent over the course of the experiment. […] Compound efficacy was assessed at the end of the study by percentage of T/C defined as the mean treated tumor volume/mean control tumor volume×100%, with a T/C of about 40% or less being indicative of antitumor activity (J. Plowman et al., Human tumor xenograft models in NCI drug development in Teicher BA (ed) “Anticancer Drug Development Guide: Preclinical screening, clinical trials, and approval”. Humana Press Inc., Totowa, N.J. 1997;101-125). To monitor the drug-associated toxicity, mice were weighed at least twice a week and daily inspected for observable clinical signs. Statistical analysis was performed by ANOVA (ANalysis Of VAriance) or by Student's t test. Differences were considered to be significant at P<0.05.
Once we had established the optimum dose range (activity and well tolerated toxicity), a second study was performed to establish the time necessary to obtain optimum antitumor efficacy. This study was performed using 5, 10 and 20 mg/ml infused over 1, 3 and 5 days, when the tumors had reached 85 mm^3 (day 6).
Bolus administration was given by intravenous injection in the tail vein (10 ml/kg).

[4] = design: species or system mice; details: athymic CD-1 (nu/nu) nude, mouse, in vivo
Procedure: Blood was centrifuged at 10,000 g for 10 minutes and plasma was collected and frozen at −20° C. until further analysis. An aliquot of mouse plasma (100 μl) was precipitated with 300 μl of acetonitrile containing 3TC® (Shire BioChem) as internal standard. After centrifugation at 3,000 ×g for 5 minutes, 300 μl of supernatant was collected and evaporated to dryness under a gentle stream of nitrogen. The residue was then reconstituted with 100 μl of deionized water. […] The chromatography was achieved on a Luna C18 column (150×2 mm, 5 μm, Phenomenix, Torrance, Calif.) with a flow rate of 0.25 ml/min. The aqueous mobile phase, consisting of 10 mM ammonium acetate buffer, pH6.8, was held for 5 minutes and followed by a linear gradient of 0-50% acetonitrile over 8 minutes. Sample analysis was performed on a LC/MS/MS (TSQ7000, Thermo Finnigan, San Jose, Calif.) equipped with electrospray source.

advanced solid tumors = test: Phase I continuous infusion in advanced solid tumors: toxicity; type: in vivo, human
Procedure: This is a dose and infusion length finding study to achieve a minimum steady-state plasma concentration of 21 ng/mL (0.1 μM) for 72-120 hr. The starting dose of 3 mg/m^2/d was determined from PK simulation modeling using data obtained from Phase I studies (30-minute infusions). The starting infusion duration was 48 hr with escalation to 72 hr, 96 hr and 120 hr in cohorts of 3-6 patients.
In the results evaluated to date, 12 adults with refractory solid tumors have been treated. The first cohort (4 patients) received drug for 48 h (total dose 6 mg/m^2) with no DLT. The second cohort of patients was treated for 72 hr (total 9 mg/m^2). […] The 2 patients with DLT had the highest plasma concentrations. Enrollment is ongoing at 2.25 mg/m^2/d for 96 h (total 9 mg/m^2).

[5] = bolus administration
[6] = system: relapsed acute myeloid leukemia (AML); details: in vivo
[7] = human, in vivo
[8] = mice, bolus i.v. 20 mg/kg, cited from earlier work
[9] = rats, 10 mg/kg injection; cited from earlier work
nucleoside transporters = details: membrane permeation not mediated by nucleoside transporters; cited from earlier work
cytidine deaminase (CDA) = cytidine deaminase (CDA) (Homo sapiens, UniProt P32320); details: cited from earlier work
Chain of cytidine deaminase (CDA) (P32320 whole entry, species assumed): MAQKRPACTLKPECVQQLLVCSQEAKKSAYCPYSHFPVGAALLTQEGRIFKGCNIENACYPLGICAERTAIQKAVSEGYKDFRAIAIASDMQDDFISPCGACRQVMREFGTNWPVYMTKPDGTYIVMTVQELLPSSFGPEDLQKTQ

in vivo [10] = details: female, mouse
Procedure: Antitumor efficacy studies: In vivo efficacy studies were conducted using the HT-29 human colorectal cancer cells grown as xenografts in nude mice. Female athymic CD-1(nu/nu) mice were injected s.c. with 2×10^6 human colon HT-29 tumor cells. Tumor bearing animals were randomised (10 to 15 per group) and treatment started when tumor volumes reached 80 to 120 mm^3 (days 6 to 9; depending on the study). Tumor measurements, taken by callipers twice weekly, were converted to tumor volumes (in mm^3) using the standard formula, [width (mm)]^2×length (mm)×0.52. […] The pumps were implanted s.c. under sterile conditions at the site opposite to the tumor. These pumps (internal volume, 200 μl) continuously deliver test agent at a rate of 1 μl/h for 200 h (8.3 days total). Pumps were removed after 1, 3, 5 or 6 days, thus insuring continuous delivery of test agent over the course of the experiment. […] To monitor the drug-associated toxicity, mice were weighed at least twice a week and daily inspected for observable clinical signs. Statistical analysis was performed by ANOVA (ANalysis Of VAriance) or by Student's t test. Differences were considered to be significant at P<0.05.

in vivo [11] = details: nude, mouse, 10.6 mg/kg
[12] = cited from earlier work; for recommended doses: DLT neutropenia and skin rash
[13] = system: relapsed acute myeloid leukemia (AML); test: Phase I continuous infusion in relapsed AML: toxicity and antileukemic activity

Which “potency of 72-hour versus 1 hr exposure” value ([1]; HT-29, MTT) does the source give for `Nc1ccn([C@@H]2CO[C@H](CO)O2)c(=O)n1` [troxacitabine, (−)-β-L-Dioxolane-Cytidine] here?
Its value is 265 fold.

And the GI50 ([1]; HT-29, 24 h, HT-29, 24 hr drug exposure)?
Its GI50 is 5 µM.

What about the GI50 ([1]; HT-29, 72 h, HT-29, 72 hr drug exposure) of the same compound?
The GI50 was 1 µM.

What about the GI50 ([1]; HT-29, HT-29, 1 hr drug exposure, read on day 3) of the same compound?
The GI50 was 265 µM.

And the GI50 ([1]; HT-29, HT-29, 4 hr drug exposure, read on day 3)?
The GI50 was 46 µM.

And the “change in potency when incubation time increased from 72 hr to 144 hr” value [2]?
Its value is “No further increase in potency”.

And the “difference between IC50 values following 24- and 72 hr exposures” value [2]?
Its value is 5 fold.

And the IC50 ([2]; 24 hr exposure)?
The IC50 was 2.2 µM.

What about the IC50 ([2]; 72 hr exposure) of the same compound?
Its IC50 is 0.4 µM.

And the T/C ([3]; 0.5 mg/ml pump, continuous infusion 6 days, day 31)?
The T/C was 79%.

And the T/C ([3]; 5 mg/ml pump, continuous infusion 6 days, day 31)?
Its T/C is 42%.

What about the “antitumor activity of infusion compared with daily bolus” value ([3]; 10 mg/ml infusion over 6 days vs 10.6 mg/kg daily for 5 consecutive days) of the same compound?
The value was “same antitumor activity”.

What about the T/C ([3]; 10 mg/ml pump, continuous infusion 6 days, day 31) of the same compound?
Its T/C is 22%.

And the “day from which tumor regressions were observed” value ([3]; 10 mg/ml)?
Its value is 29 days.

And the tumor course ([3]; 20 mg/ml infused over 3 days)?
Its tumor course is “tumor stasis during the first week after treatment followed by tumor regrowth”.

What about the T/C ([3]; 20 mg/ml infused over 3 days, end of study) of the same compound?
The T/C was 44%.

What about the tumor regressions ([3]; 20 mg/ml, 5-day infusion) of the same compound?
The tumor regressions was “Tumor regressions were observed from day 18 till day 28 followed by regrowth”.

What about the T/C ([3]; 20 mg/ml, 5-day infusion, end of study) of the same compound?
Its T/C is 27%.

And the T/C ([3]; 50 mg/ml pump, continuous infusion 6 days, day 31)?
The T/C was 11%.

What about the “day from which tumor regressions were observed” value ([3]; 50 mg/ml) of the same compound?
Its value is 21 days.

What about the “inhibition of tumor growth” value ([3]; 3-day administration regimens (q7d×3 or 3-day infusions)) of the same compound?
The value was “intermediate”.

What about the “inhibition of tumor growth” value ([3]; 5-6 day regimens (q1d×5 or 6-day infusions)) of the same compound?
Its value is “optimal”.

And the “effect on tumor growth” value ([3]; one day infusion (24 h), 5, 10 and 20 mg/ml)?
Its value is “no effect”.

And the antitumor activity ([3]; single bolus i.v. injection 63 mg/kg)?
The antitumor activity was “low activity”.

What about the “peak plasma concentrations with prolonged infusion” value [4] of the same compound?
The value was 0.7 to 1.6 µM.

What about the main non-hematological toxicities (advanced solid tumors; solid tumor patients, continuous infusion) of the same compound?
Its main non-hematological toxicities is “mild to moderate skin rash”.

What about the DLT (advanced solid tumors; solid tumors, 2 mg/m^2/d over 3 days (total 6 mg/m^2), three patients) of the same compound?
The DLT was “no DLTs observed”.

And the DLT (advanced solid tumors; solid tumors, 3 mg/m^2/d for 48 h (total 6 mg/m^2), 4 patients)?
The DLT was “no DLT”.

What about the “DLT's, patients” value (advanced solid tumors; solid tumors, 3 mg/m^2/d for 72 hr (total 9 mg/m^2), Grade 4 neutropenia, fever, Grade 3 thrombocytopenia) of the same compound?
The value was 2 of the 5.

What about the body weight loss (50 mg/ml, 3-5 days following initiation of treatment) of the same compound?
The body weight loss was at most 20%.

And the “maximum tolerated dose (MTD)” value (pump concentration, continuous infusion 6 days, nude mice)?
The value was 50 mg/mL.

What about the “tolerated drug systemic concentrations, mice compared with humans” value [5] of the same compound?
The value was “over 20 fold”.

What about the “tolerated exposures, mice compared with humans” value [5] of the same compound?
The value was “over 6 fold”.

What about the hand-foot syndrome ([6]; human) of the same compound?
The hand-foot syndrome was “Grade 1 and 2 hand-foot syndrome was also observed at all dose levels”.

What about the “dose-limiting Grade 3 stomatitis, patients” value ([6]; human, 6 days) of the same compound?
Its value is 2 of 4.

What about the “dose-limiting stomatitis, patients” value [6] of the same compound?
The value was “Two of the four”.

What about the skin rash [6] of the same compound?
Its skin rash is “generalized mild to moderate skin rash was observed at all dose levels”.

What about the “drug exposure above or equal to 0.4 μM” value [7] of the same compound?
Its value is 120 h.

What about the “interpatient variation in observed concentrations at each protocol time-point” value [7] of the same compound?
Its value is 2-to 3 fold.

And the Cmax ([8]; at 2 minutes, read-out: plasma Cmax)?
The Cmax was at least 100 µM.

And the “elimination t1/2” value [8]?
Its value is 0.267 h.

What about the “plasma drug concentration by 60 minutes” value [8] of the same compound?
Its value is 4.5 µM.

And the Cmax [9]?
The Cmax was at least 100 µM.

And the “major route of cellular uptake” value (nucleoside transporters)?
Its value is “passive diffusion”.

And the “deamination by cytidine deaminase (CDA)” value (cytidine deaminase (CDA))?
Its value is “resistant to deamination”.

What about the MTD at 6 days (in vivo [10]) of the same compound?
Its MTD at 6 days is 45 to 50 mg/kg/day.

What about the AUC at 5 days (in vivo [11]) of the same compound?
The AUC at 5 days was 18800 ng·h/mL.

And the “drug exposure above or equal to 0.4 μM” value ([12]; bolus administration)?
The value was 19.3 h.

And the Cmax plasmatic ([12]; humans, 1.5 and 1.2 mg/m^2/d, first day)?
The Cmax plasmatic was 110 to 140 ng/mL.

What about the “time to steady state plasma concentration” value ([12]; humans, 5 half-lives (5×12 hrs)) of the same compound?
The value was 60 h.

What about the recommended doses ([12]; humans, 30-minute infusion every 21 days) of the same compound?
Its recommended doses is 12.5 mg/m^2 and 10 mg/m^2.

And the recommended doses ([12]; humans, 30-minute infusion on 5 consecutive days every 4 weeks)?
The recommended doses was 1.5 mg/m^2/d and 1.2 mg/m^2/d.

And the “plasma concentrations 5 minutes after drug administration” value ([12]; humans, administered clinical bolus doses)?
Its value is 0.6 to 4 µM.

And the “drug concentration less than 30 minutes after the end of infusion” value ([12]; humans, i.v. 10 mg/m^2)?
Its value is “less than 1 μM”.

And the “elimination t1/2” value ([12]; humans, i.v. 10 mg/m^2)?
Its value is 13 h.

And the “time drug concentration remained above 0.1 μM” value ([12]; humans, i.v. 10 mg/m^2)?
The value was “approximately 12 hours”.

And the “maximum tolerated dose in humans” value ([12]; i.v. administration)?
The value was 10 mg/m^2.

What about the Cmax ([12]; read-out: Cmax plasmatic, humans, 1.5 and 1.2 mg/m^2/d, first day) of the same compound?
The Cmax was 0.52 to 0.66 µM.

What about the Cmax ([12]; read-out: plasma Cmax, humans, i.v. 10 mg/m^2) of the same compound?
Its Cmax is 4.1 µM.

And the “bone marrow aplasia, patients” value ([13]; AML patients who received 40.4-60.6 mg/m^2)?
The value was 10 of 17.

What about the “higher cumulative doses achieved than by bolus administration” value ([13]; AML patients, continuous infusion) of the same compound?
Its value is 25%.

What about the recommended dose ([13]; AML patients, continuous infusion administered over five days) of the same compound?
The recommended dose was 50.5 mg/m^2.

What about the bone marrow hypoplasia/aplasia ([13]; first 7 AML patients, cumulative doses ≦30.3 mg/m^2) of the same compound?
Its bone marrow hypoplasia/aplasia is “not seen”.

What about the “patients who achieved remissions” value ([13]; first 24 AML patients treated) of the same compound?
The value was 4 patients.
